Marks after values point to notes of the source that are not given here.
Key:
α1-adrenergic receptors = assay: α1-adrenoceptor radioligand binding assay ([3H]-prazosin, rat cortex); conditions: rat cortex tissue, mean ± SEM
In short: (§1)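 Rat cerebral cortex membranes in 50 mM Tris-HCl pH 7.6, with 7–8 compound concentrations in duplicate. Nonspecific binding defined by 10 μM phentolamine for [3H]-prazosin (α1) or 10 μM clonidine for [3H]-clonidine (α2). Filtration and scintillation counting; Ki calculated.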

α2-adrenergic receptors = assay: α2-adrenoceptor radioligand binding assay ([3H]-clonidine, rat cortex); conditions: rat cortex tissue, mean ± SEM, n.a. = did not bind at 10^−5 M
In short: as §1

[1] = system: adrenaline-induced arrhythmia model in rats; assay: Prophylactic antiarrhythmic activity in adrenaline-induced arrhythmia; format: in vivo, rat; conditions: for Blocks / Bradycardia / Extrasystoles / Mortality: number of animals with event
[2] = system: calcium chloride-induced arrhythmia model in rats; assay: Prophylactic antiarrhythmic activity in calcium chloride-induced arrhythmia; format: in vivo, rat; conditions: 5 mg/kg iv 15 min before calcium chloride 140 mg/kg; number of animals with event
[3] = system: aconitine-induced arrhythmia model in rats; assay: Prophylactic antiarrhythmic activity in aconitine-induced arrhythmia; format: in vivo, rat; conditions: 5 mg/kg iv 15 min before aconitine 20 μg/kg; number of animals with event
normotensive rats = assay: Influence on blood pressure in the normotensive rats; format: in vivo, rat; conditions: for DBP—diastolic blood pressure / SBP—systolic blood pressure: mean ± SD
In short: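 Anaesthetised (thiopental 75 mg/kg ip) normotensive Wistar rats with right carotid artery cannulated for direct pressure recording. Compounds given iv after 15 min stabilisation. Systolic and diastolic blood pressure were monitored.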

[4] = system: pressor response to methoxamine in rats; assay: Influence on blood vasopressor response to methoxamine in rats; format: in vivo, rat; conditions: 5 mg/kg iv, methoxamine 150 μg/kg before and 5 min after compound
In short: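 Anaesthetised (thiopental 75 mg/kg ip) normotensive Wistar rats, carotid artery cannulated. Pressor response to methoxamine (150 µg/kg, iv) recorded before and 5 min after test compound, given at its lowest hypotensive dose, after 15-min stabilisation.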

[5] = system: adrenaline-induced arrhythmia model in rats; assay: Therapeutic antiarrhythmic activity in adrenaline-induced arrhythmia; conditions: 5 mg/kg iv immediately after adrenaline 20 µg/kg; number of animals with event
Experimental: The experiments were carried out according to the method described by Szekeres and Papp [71]. The heart rhythm disturbances, such as extrasystoles, conduction blocks, and bradycardia, were induced by iv injection of adrenaline (20 µg/kg) to anesthetized rats (thiopental, 75 mg/kg, ip). […] The Aspel ASCARD apparatus (standard II lead, with a tape of speed 50 mm/s and voltage calibration of 1 mV = 1 cm) was used for the ECG measurements. The ECG was recorded during the first 2 min and in the 5th, 10th, and 15th min after the adrenaline injection (Figure 3B). The lack or decreased amount of extrasystoles, atrioventricular blocks, and bradycardia in the ECG recordings compared to the control group was the criterion of antiarrhythmic activity [72].
Automated ECG waveform analysis was evaluated as described earlier [55], using Eleven Maze software version 0.1 from Eleven Products Sp. z o.o. […] The software, under expert supervision, recognized and classified the heart rhythm irregularities. It also calculated PQ, QRS, QTc, and rate parameters.

[6] = 0.25 mg/kg iv 15 min before adrenaline 20 μg/kg
[7] = 0.5 mg/kg iv 15 min before adrenaline 20 μg/kg
[8] = 1 mg/kg iv 15 min before adrenaline 20 μg/kg
[9] = 2.5 mg/kg iv, 0 min (before administration)
[10] = 5.0 mg/kg iv, 0 min (before administration)

## COc1ccccc1N1CCN(Cc2ccc(COc3ccccc3C(N)=O)cc2)CC1.Cl [JJGW12, 2-[(4-{[4-(2-metoxyphenyl)piperazin-1-ylo]methyl}phenyl)metoxy}benzamide hydrochloride]
α1-adrenergic receptors
  Adrenergic Receptors—pKi α1: 7.41 ± 0.01
α2-adrenergic receptors
  Adrenergic Receptors—pKi α2: 6.11 ± 0.01
[1]; [6]
  Blocks: 6/6
  Bradycardia: 5/6
  Extrasystoles: 6/6
  Mortality: 3/6
[1]; [7]
  Blocks: 4/5
  Bradycardia: 3/5
  Extrasystoles: 4/5
  Mortality: 0/5
[1]; [8]
  Blocks: 3/5
  Bradycardia: 1/5
  Extrasystoles: 3/5
  Mortality: 0/5
[1]; prophylactic, iv 15 min before adrenaline 20 μg/kg, confidence limits in brackets (Litchfield and Wilcoxon)
  ED50: 0.44 (0.10–1.98) mg/kg
[2]
  Blocks: 6/6
  Bradycardia: 6/6
  Extrasystoles: 6/6
  Fibrillations: 4/6
  Mortality: 6/6
[3]
  Blocks: 5/6
  Bradycardia: 6/6
  Extrasystoles: 6/6
  Fibrillations: 5/6
  Mortality: 6/6
Normotensive rats; [9]
  DBP—diastolic blood pressure: 95.0 ± 16.0 mmHg
  SBP—systolic blood pressure: 122.2 ± 15.6 mmHg
Normotensive rats; 2.5 mg/kg iv, 5 min
  DBP—diastolic blood pressure: 94.5 ± 16.5 mmHg
  SBP—systolic blood pressure: 120.7 ± 13.8 mmHg
Normotensive rats; 2.5 mg/kg iv, 10 min
  DBP—diastolic blood pressure: 87.5 ± 23.0 mmHg
  SBP—systolic blood pressure: 114.5 ± 10.6 mmHg
Normotensive rats; 2.5 mg/kg iv, 20 min
  DBP—diastolic blood pressure: 83.5 ± 22.4 mmHg
  SBP—systolic blood pressure: 109.7 ± 9.3 mmHg
Normotensive rats; 2.5 mg/kg iv, 30 min
  DBP—diastolic blood pressure: 84.0 ± 21.4 mmHg
  SBP—systolic blood pressure: 106.5 ± 13.1 mmHg
Normotensive rats; 2.5 mg/kg iv, 40 min
  DBP—diastolic blood pressure: 87.8 ± 16.7 mmHg
  SBP—systolic blood pressure: 108.8 ± 11.8 mmHg
Normotensive rats; 2.5 mg/kg iv, 50 min
  DBP—diastolic blood pressure: 89.3 ± 13.4 mmHg
  SBP—systolic blood pressure: 110.0 ± 7.5 mmHg
Normotensive rats; 2.5 mg/kg iv, 60 min
  DBP—diastolic blood pressure: 89.2 ± 13.9 mmHg
  SBP—systolic blood pressure: 110.5 ± 8.1 mmHg
Normotensive rats; [10]
  DBP—diastolic blood pressure: 95.7 ± 6.0 mmHg
  SBP—systolic blood pressure: 122.5 ± 11.9 mmHg
Normotensive rats; 5 mg/kg iv, 50th min since administration
  decrease of the systolic blood pressure: 13%
Normotensive rats; 5.0 mg/kg iv, 5 min
  DBP—diastolic blood pressure: 87.7 ± 7.0 mmHg
  SBP—systolic blood pressure: 120.7 ± 9.8 mmHg
Normotensive rats; 5.0 mg/kg iv, 10 min
  DBP—diastolic blood pressure: 89.3 ± 8.1 mmHg
  SBP—systolic blood pressure: 114.5 ± 9.1 mmHg
Normotensive rats; 5.0 mg/kg iv, 20 min
  DBP—diastolic blood pressure: 88.5 ± 9.0 mmHg
  SBP—systolic blood pressure: 112.8 ± 10.0 mmHg
Normotensive rats; 5.0 mg/kg iv, 30 min
  DBP—diastolic blood pressure: 87.8 ± 8.8 mmHg
  SBP—systolic blood pressure: 111.5 ± 10.4 mmHg
Normotensive rats; 5.0 mg/kg iv, 40 min
  DBP—diastolic blood pressure: 87.8 ± 8.7 mmHg
  SBP—systolic blood pressure: 113.0 ± 11.9 mmHg
Normotensive rats; 5.0 mg/kg iv, 50 min
  DBP—diastolic blood pressure: 85.8 ± 8.1 mmHg
  SBP—systolic blood pressure: 107.0 ± 12.7 ^a mmHg
Normotensive rats; 5.0 mg/kg iv, 60 min
  DBP—diastolic blood pressure: 86.7 ± 10.7 mmHg
  SBP—systolic blood pressure: 109.8 ± 12.2 mmHg
Normotensive rats; 5 mg/kg iv, normotensive rats
  influence on the diastolic blood pressure: did not influence the diastolic blood pressure
[4]
  attenuation of the methoxamine pressor response: 97%
[5]
  Blocks: 6/6
  Bradycardia: 6/6
  Mortality: 6/6

— PMC9820316, “Novel Arylpiperazine Derivatives of Salicylamide with α1-Adrenolytic Properties Showed Antiarrhythmic and Hypotensive Properties in Rats” (International Journal of Molecular Sciences, 2022)
